Assay results as given in patent US11389473B2, “Magnesium-containing oxytocin formulations and methods of use” (Tonix Pharmaceuticals Holding Corp., priority 2015, dated 2022).

Columns and labels:
[1] = system: rat model of facial thermal nociception; test: Rat model of facial thermal nociception (cheek withdrawal latency to radiant heat); type: in vivo; settings: for analgesic effect (elevation in latency to withdrawal): 15-300 min
Method: The heat from a projector lamp was focused on the pre-shaved cheek of rats and the intensity was varied to obtain a withdrawal response with a latency of between 6.5 and 8.5 seconds. The intensity applied to achieve such latencies was recorded for each animal. Once stable/acceptable baseline values were obtained, the average latencies for each rat were calculated. After baseline cheek withdrawal latencies were determined for all rats, each rat received a single nasal administration of either normal saline, 15% magnesium chloride in water, or 1% magnesium lactate in water according to the method developed by Frey (Thorne, et al. Neuroscience., 127: 481-496 (2004)). Briefly, rats (under urethane anesthesia) were placed in a supine position with a rolled pad (2×2 gauze) inserted under the dorsal neck to extend the head back toward the supporting surface. The upper surface of the neck was kept horizontal throughout the dosing procedure to maintain the drug solution in the nasal cavity and minimize dripping down the nasopharynx. A 6 μL drop of the respective drug solution was delivered off the tip of a small pipette and presented to the nares on the left side of the rat while occluding the opposite nares. One drop was administered every 2 minutes, alternating between each nares (thus amounting to a four minute interval between doses to the same nares). Each nostril received 4 drops, totaling a combined volume of 48 μL (8 drops of 6 μL each). Drug solutions were coded in order to keep the experimenter blinded as to the substances delivered. Left cheek withdrawal latencies in response to radiant heat stimulation were then measured over the next 3 hours. Withdrawal latencies were measured prior to nasal administration and at 1, 2, and 3 hours post-treatment.
(§1) One of 4 concentrations of dibasic magnesium citrate (1:1 Mg/citrate) was applied to rats and the effects of these applications on responses to noxious thermal stimulation of the face were assessed as described above. Each rat received a single nasal administration of 3, 6, 10, or 12% magnesium citrate in water (6 rats/group) according to the method described above. Left cheek withdrawal latencies in response to radiant heat stimulation were then measured over the following 300 minutes. Withdrawal latencies were measured prior to nasal administration and at 15, 30, 45, 60, 120, 180, 240, and 300 min post-treatment.
as §1, with “3 doses” for “4 concentrations”, “oxytocin in buffered saline” for “dibasic magnesium citrate (1:1 Mg/citrate)”, “1, 4,” for “3, 6, 10,”, “8 μg oxytocin” for “12% magnesium citrate”, “aqueous solution” for “water”
Aqueous solutions containing a combination of magnesium citrate at one of 3 concentrations with oxytocin at one of 3 doses were applied nasally in rats and changes in withdrawal response latency were measured as above. Each rat received a single nasal administration of 1, 4, or 8 μg of oxytocin in aqueous solution containing 3, 6, or 12% magnesium citrate according to the method described above. Left cheek withdrawal latencies in response to radiant heat stimulation were then measured over the following 300 minutes. Withdrawal latencies were measured prior to nasal administration and at 15, 30, 45, 60, 120, 180, 240, and 300 min post-treatment.
Difference scores were generated for each time point after dosing by comparing the respective withdrawal response latency to pre-dosing (baseline) values.

[2] = system: rat paw inflammation model; test: Rat paw inflammation model (complete Freund's adjuvant, forepaw force withdrawal threshold); type: in vivo; settings: nasal
Method: The analgesic effect of nasally administered oxytocin on cervical nerve-associated inflammatory pain was assessed in a rat paw inflammation model (Martin et al., Pain 1999, 82:199-205). Oxytocin was nasally administered at one of three doses (193, 385 or 768 micrograms in 48 microliters) and force withdrawal thresholds in grams were determined following mechanical stimulation of the inflamed area (forepaw), at regular intervals over the next three hours, and compared against those of vehicle (phosphate buffered saline) treated rats. Injection of complete Freund's adjuvant into the left forepaw of rats produced a robust inflammation of that paw as well as a substantial decrease in the force necessary to elicit a withdrawal response (mechanical allodynia).

[3] = system: patient with chronic tension-type headache; test: Patient with chronic tension-type headache, neck and shoulder pain taking oxytocin sprays; type: in vivo, human
Description: A patient with chronic tension-type headache reported having intense pain in their head, neck and shoulders. The patient took 4 sprays of 7.5 IU/spray oxytocin for a dose of 30 units, at which point their headache pain was gone, but the neck and shoulder pain remained. […] Thus, a higher dose was necessary to affect neck and shoulder pain than was necessary to inhibit head pain in the same patient.

[4] = 1% in water, single nasal administration
[5] = 4 sprays of 7.5 IU/spray, dose of 30 units

Molecule: [Cl-].[Cl-].[Mg+2] [magnesium chloride]
- analgesia at 2 and 3 hours after dosing ([1]; 15% in water, single nasal administration): analgesia continuing
- analgesic effect compared to nasal saline treated rats ([1]; 15% in water, single nasal administration, 1 hour): strong analgesic effect

Molecule: CC(O)C(=O)[O-].CC(O)C(=O)[O-].[Mg+2] (centres unmarked) [magnesium lactate]
- analgesic effect [1, 4]: mild analgesic effect
- withdrawal latencies at the 2 and 3 hour time points [1, 4]: still substantially elevated
- rise in withdrawal response latency ([1]; 1% in water, single nasal administration, 48 μL): approximately 1.5 s

Molecule: CC[C@H](C)[C@@H]1NC(=O)[C@H](Cc2ccc(O)cc2)NC(=O)[C@@H](N)CSSC[C@@H](C(=O)N2CCC[C@H]2C(=O)N[C@@H](CC(C)C)C(=O)NCC(N)=O)NC(=O)[C@H](CC(N)=O)NC(=O)[C@H](CCC(N)=O)NC1=O [oxytocin, Cys-Tyr-Ile-Gln-Asn-Cys-Pro-Leu-Gly]
- effect on mechanical allodynia resulting from inflammation ([2]; higher 2 doses, 385 or 768 micrograms in 48 microliters): statistically significant partial reversal of the mechanical allodynia
- effect on pain thresholds (force withdrawal threshold, inflamed forepaw) ([2]; lowest dose, 193 micrograms in 48 microliters): ineffective
- withdrawal latency ([1]; 1 μg nasally applied): no increase
- analgesic effect (elevation in latency to withdrawal) ([1]; 1, 4 or 8 μg in aqueous solution, single nasal administration): clear dose-dependent analgesic effect
- latency to withdrawal in response to noxious cheek heating ([1]; 4 and 8 μg nasally applied): robust increase in latency to withdrawal
- headache pain [3, 5]: gone
- neck and shoulder pain [3, 5]: remained
- neck and shoulder pain ([3]; additional 8-10 sprays, or a total of 60-75 IU): receded and ceased

Molecule: magnesium citrate
- analgesic effect (elevation in latency to withdrawal) ([1]; 3, 6, 10 or 12% in water, single nasal administration): clear dose-dependent analgesic effect
